From patent US20250051327A1, “MALT-1 MODULATORS” (EXSCIENTIA AI LIMITED, priority 2020, published 2025)

Tests used:
[1] = system: IL-2 secretion by human effector memory T cells (TEM); test: Effector memory T cells IL-2 release assay; type: cell-based; settings: T-cell; human CD4+ effector memory T cells, CD3/CD28 bead stimulation, 24 h; read-out: CD4TC IL2 IC50
How it was run: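 Human CD4+ effector memory T cells from healthy-donor buffy coats were stimulated with anti-CD3/CD28 Dynabeads and exposed to 10 semi-log compound doses (0.1% DMSO) for 24 h at 37 °C. Supernatant IL-2 was measured by HTRF, and IC50 came from a 4-parameter logistic fit to maximal IL-2. Viability was checked by flow cytometry.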

[2] = molecular target: Recombinant human MALT-1 (amino acids 340-824) (Homo sapiens (Human), UniProt Q9UDY8); test: MALT-1 inhibition assay (fluorogenic substrate Ac-LRSR-Rh110-DP); type: biochemical; settings: recombinant human MALT-1, substrate Ac-LRSR-Rh110-DP
Recombinant human MALT-1 (amino acids 340-824), sequence (Q9UDY8 340-824): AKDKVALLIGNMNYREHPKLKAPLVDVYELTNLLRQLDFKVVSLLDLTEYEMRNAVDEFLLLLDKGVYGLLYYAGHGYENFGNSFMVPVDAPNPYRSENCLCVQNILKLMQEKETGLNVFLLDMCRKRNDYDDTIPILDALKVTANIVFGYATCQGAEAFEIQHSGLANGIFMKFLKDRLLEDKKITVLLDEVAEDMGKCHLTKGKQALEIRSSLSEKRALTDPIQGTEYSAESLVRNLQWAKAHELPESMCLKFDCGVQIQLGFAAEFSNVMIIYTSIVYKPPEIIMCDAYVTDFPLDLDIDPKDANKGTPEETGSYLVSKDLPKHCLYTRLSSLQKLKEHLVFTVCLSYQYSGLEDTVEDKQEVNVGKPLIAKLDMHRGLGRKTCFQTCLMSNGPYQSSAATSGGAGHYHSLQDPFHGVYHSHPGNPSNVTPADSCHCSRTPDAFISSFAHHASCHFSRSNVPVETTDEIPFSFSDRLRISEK
How it was run: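 Reactions were started with fluorogenic substrate Ac-LRSR-Rh110-DP (10 μM final) against 3 nM enzyme and kept dark at 25° C for 60 minutes. IC50 values came from 4-parameter logistic fits of percent inhibition calculated from relative fluorescence units.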

| SMILES | IC50 [1] | IC50 [2] |
| --- | --- | --- |
| CN(C(=O)C1CC(O)C1)[C@@H](c1ccc(N2CCCc3c2cnc2cc(Cl)nn32)cc1)C(F)(F)F (stereo partly drawn) [CPD0021565, N-[(1S)-1-(4-{4-chloro-2,3,7,10-tetraazatricyclo[7.4.0.0^2,6]trideca-1(9),3,5,7-tetraen-10-yl}phenyl)-2,2,2-trifluoroethyl]-3-hydroxy-N-methylcyclobutane-1-carboxamide] | 86 nM | 84 nM |
| CN(C(=O)C1CCOC1)[C@@H](c1ccc(N2CCCc3c2cnc2cc(Cl)nn32)cc1)C(F)(F)F (stereo partly drawn) [CPD0021568, N-[(1S)-1-(4-{4-chloro-2,3,7,10-tetraazatricyclo[7.4.0.0^2,6]trideca-1(9),3,5,7-tetraen-10-yl}phenyl)-2,2,2-trifluoroethyl]-N-methyloxolane-3-carboxamide] | 143 nM | 169 nM |
| CN(C(=O)C1CCCCO1)[C@@H](c1ccc(N2CCCc3c2cnc2cc(Cl)nn32)cc1)C(F)(F)F (stereo partly drawn) [CPD0021569, N-[(1S)-1-(4-{4-chloro-2,3,7,10-tetraazatricyclo[7.4.0.0^2,6]trideca-1(9),3,5,7-tetraen-10-yl}phenyl)-2,2,2-trifluoroethyl]-N-methyloxane-2-carboxamide] | 325 nM | 211 nM |
| CN(C(=O)C1CCCO1)[C@@H](c1ccc(N2CCCc3c2cnc2cc(Cl)nn32)cc1)C(F)(F)F (stereo partly drawn) [CPD0021570, N-[(1S)-1-(4-{4-chloro-2,3,7,10-tetraazatricyclo[7.4.0.0^2,6]trideca-1(9),3,5,7-tetraen-10-yl}phenyl)-2,2,2-trifluoroethyl]-N-methyloxolane-2-carboxamide] | 142 nM | 147 nM |
| CN(C(=O)C1CCCS(=O)(=O)C1)[C@@H](c1ccc(N2CCCc3c2cnc2cc(Cl)nn32)cc1)C(F)(F)F (stereo partly drawn) [CPD0021571, N-[(1S)-1-(4-{4-chloro-2,3,7,10-tetraazatricyclo[7.4.0.0^2,6]trideca-1(9),3,5,7-tetraen-10-yl}phenyl)-2,2,2-trifluoroethyl]-N-methyl-1,1-dioxo-1λ^6-thiane-3-carboxamide] | 332 nM | 247 nM |
| CN(C(=O)C1CCCOC1)[C@@H](c1ccc(N2CCCc3c2cnc2cc(Cl)nn32)cc1)C(F)(F)F (stereo partly drawn) [CPD0021572, N-[(1S)-1-(4-{4-chloro-2,3,7,10-tetraazatricyclo[7.4.0.0^2,6]trideca-1(9),3,5,7-tetraen-10-yl}phenyl)-2,2,2-trifluoroethyl]-N-methyloxane-3-carboxamide] | 193 nM | 166 nM |
| CN(C(=O)C1CCS(=O)(=O)C1)[C@@H](c1ccc(N2CCCc3c2cnc2cc(Cl)nn32)cc1)C(F)(F)F (some centres unmarked) [CPD0021573] | 85 nM | 131 nM |
| CN(C(=O)C1CCOCC1)[C@@H](c1ccc(N2CCCc3c2cnc2cc(Cl)nn32)cc1)C(F)(F)F [CPD0021574, N-[(1S)-1-(4-{4-chloro-2,3,7,10-tetraazatricyclo[7.4.0.0^2,6]trideca-1(9),3,5,7-tetraen-10-yl}phenyl)-2,2,2-trifluoroethyl]-N-methyloxane-4-carboxamide] | 121 nM | 123 nM |
| CN(C(=O)C1CS(=O)(=O)C1)[C@@H](c1ccc(N2CCCc3c2cnc2cc(Cl)nn32)cc1)C(F)(F)F [CPD0021575, N-[(1S)-1-(4-{4-chloro-2,3,7,10-tetraazatricyclo[7.4.0.0^2,6]trideca-1(9),3,5,7-tetraen-10-yl}phenyl)-2,2,2-trifluoroethyl]-N-methyl-1,1-dioxo-1λ^6-thietane-3-carboxamide] | 128 nM | 123 nM |
| CCC(O)C(=O)N(C)[C@@H](c1ccc(N2CCCc3c2cnc2cc(Cl)nn32)cc1)C(F)(F)F (stereo partly drawn) [CPD0021576, N-[(1S)-1-(4-{4-chloro-2,3,7,10-tetraazatricyclo[7.4.0.0^2,6]trideca-1(9),3,5,7-tetraen-10-yl}phenyl)-2,2,2-trifluoroethyl]-2-hydroxy-N-methylbutanamide] | 333 nM | 146 nM |
| CN([C@@H](c1ccc(N2CCCc3c2cnc2cc(Cl)nn32)cc1)C(F)(F)F)S(C)(=O)=O [CPD0021581, N-[(1S)-1-(4-{4-chloro-2,3,7,10-tetraazatricyclo[7.4.0.0^2,6]trideca-1(9),3,5,7-tetraen-10-yl}phenyl)-2,2,2-trifluoroethyl]-N-methylmethanesulfonamide] | 538 nM | 370 nM |
| COc1ccc2ncc(N(C)c3ccc([C@H](N(C)C(=O)C4CCS(=O)(=O)CC4)C(F)(F)F)cc3)cc2n1 [CPD0021585, N-methyl-1,1-dioxo-N-[(1S)-2,2,2-trifluoro-1-{4-[(6-methoxy-1,5-naphthyridin-3-yl)(methyl)amino]phenyl}ethyl]-1λ^6-thiane-4-carboxamide] | 1680 nM | 863 nM |
| CN([C@@H](c1ccc(N2CCCc3c2cnc2cc(Cl)nn32)cc1)C(F)(F)F)[S+]([O-])C(C)(C)C (some centres unmarked) [CPD0021661] | 1470 nM | 302 nM |
| CN(C(=O)C1CCS(=O)(=O)CC1)[C@@H](c1ccc(N2CCCc3c2cnc2cc(F)nn32)cc1)C(F)(F)F [CPD0021664, N-methyl-1,1-dioxo-N-[(1S)-2,2,2-trifluoro-1-(4-{4-fluoro-2,3,7,10-tetraazatricyclo[7.4.0.0^2,6]trideca-1(9),3,5,7-tetraen-10-yl}phenyl)ethyl]-1λ^6-thiane-4-carboxamide] | 195 nM | 83 nM |

Results, then the compound that gave them:

| IC50 [1] | IC50 [2] | SMILES |
| --- | --- | --- |
| 2100 nM | 638 nM | CN(C(=O)C1CCS(=O)(=O)CC1)[C@@H](c1ccc(N2CCCc3c2cnc2cc(F)nn32)nc1)C(F)(F)F [CPD0021665, N-methyl-1,1-dioxo-N-[(1S)-2,2,2-trifluoro-1-(6-{4-fluoro-2,3,7,10-tetraazatricyclo[7.4.0.0^2,6]trideca-1(9),3,5,7-tetraen-10-yl}pyridin-3-yl)ethyl]-1λ^6-thiane-4-carboxamide] |
| 412 nM | 339 nM | COC(=O)N(C)[C@@H](c1ccc(N2CCCc3c2cnc2cc(Cl)nn32)cc1)C(F)(F)F [CPD0021733, Methyl N-[(1S)-1-(4-{4-chloro-2,3,7,10-tetraazatricyclo[7.4.0.0^2,6]trideca-1(9),3,5,7-tetraen-10-yl}phenyl)-2,2,2-trifluoroethyl]-N-methylcarbamate] |
| 748 nM | 368 nM | CN(C(=O)CN1CCNCC1)[C@@H](c1ccc(N2CCCc3c2cnc2cc(Cl)nn32)cc1)C(F)(F)F [CPD0021745, N-[(1S)-1-(4-{4-chloro-2,3,7,10-tetraazatricyclo[7.4.0.0^2,6]trideca-1(9),3,5,7-tetraen-10-yl}phenyl)-2,2,2-trifluoroethyl]-N-methyl-2-(piperazin-1-yl)acetamide] |
| 466 nM | 522 nM | CN1CCN(CC(=O)N(C)[C@@H](c2ccc(N3CCCc4c3cnc3cc(Cl)nn43)cc2)C(F)(F)F)CC1 [CPD0021746, N-[(1S)-1-(4-{4-chloro-2,3,7,10-tetraazatricyclo[7.4.0.0^2,6]trideca-1(9),3,5,7-tetraen-10-yl}phenyl)-2,2,2-trifluoroethyl]-N-methyl-2-(4-methylpiperazin-1-yl)acetamide] |
| 111 nM | 76 nM | CN(C(=O)C1CCS(=O)(=O)CC1)[C@@H](c1ccc(N2CCCc3c2cnc2cc(Cl)nn32)c(F)c1)C(F)(F)F [CPD0021750, N-[(1S)-1-(4-{4-chloro-2,3,7,10-tetraazatricyclo[7.4.0.0^2,6]trideca-1(9),3,5,7-tetraen-10-yl}-3-fluorophenyl)-2,2,2-trifluoroethyl]-N-methyl-1,1-dioxo-1λ^6-thiane-4-carboxamide] |
| 3280 nM | 2120 nM | CN(C(=O)C1CCS(=O)(=O)CC1)[C@@H](c1ccc(N2CCCc3c2cnc2c(Cl)cnn32)cc1)C(F)(F)F [CPD0021751, N-[(1S)-1-(4-{5-chloro-2,3,7,10-tetraazatricyclo[7.4.0.0^2,6]trideca-1(9),3,5,7-tetraen-10-yl}phenyl)-2,2,2-trifluoroethyl]-N-methyl-1,1-dioxo-1λ^6-thiane-4-carboxamide] |
| 845 nM | 433 nM | O=C(N[C@@H](c1ccc(N2CCCc3c2cnc2cc(Cl)nn32)cc1)C(F)(F)F)C1CCS(=O)(=O)CC1 [CPD0021755, N-[(1S)-1-(4-{4-chloro-2,3,7,10-tetraazatricyclo[7.4.0.0^2,6]trideca-1(9),3,5,7-tetraen-10-yl}phenyl)-2,2,2-trifluoroethyl]-1,1-dioxo-1λ^e-thiane-4-carboxamide] |
| 143 nM | 154 nM | CN(C(=O)[C@H]1CCCS(=O)(=O)C1)[C@@H](c1ccc(N2CCCc3c2cnc2cc(Cl)nn32)cc1)C(F)(F)F [CPD0021809] |
| 194 nM | 63 nM | CN(C(=O)C1CCS(=N)(=O)CC1)[C@@H](c1ccc(N2CCCc3c2cnc2cc(Cl)nn32)cc1)C(F)(F)F (some centres unmarked) [CPD0021810] |
| 213 nM | 108 nM | CC1CCN(c2ccc([C@H](N(C)C(=O)C3CCS(=O)(=O)CC3)C(F)(F)F)cn2)c2cnc3cc(Cl)nn3c21 (stereo partly drawn) [CPD0021812, N-[(1S)-1-(6-{4-chloro-13-methyl-2,3,7,10-tetraazatricyclo[7.4.0.0^2,6]trideca-1(9),3,5,7-tetraen-10-yl}pyridin-3-yl)-2,2,2-trifluoroethyl]-N-methyl-1,1-dioxo-1λ^6-thiane-4-carboxamide] |
| 228 nM | 332 nM | CSc1cc2ncc3c(n2n1)CCCN3c1ccc([C@H](N(C)C(=O)C2CCS(=O)(=O)CC2)C(F)(F)F)cc1 [CPD0021815, N-methyl-1,1-dioxo-N-[(1S)-2,2,2-trifluoro-1-{4-[4-(methylsulfanyl)-2,3,7,10-tetraazatricyclo[7.4.0.0^2,6]trideca-1(9),3,5,7-tetraen-10-yl]phenyl}ethyl]-1λ^6-thiane-4-carboxamide] |
